Patent publication US11866451B2, “Salts and crystalline forms of a PD-1/PD-L1 inhibitor” (Incyte Corporation, priority 2019, dated 2024)

Legend:
Type in all cases: physicochemical
[1] = Competitive slurry experiments, stability relationship of polymorphs in 10% water/acetone
Protocol: To evaluate the transformation of Compound 1 Di-Hydrochloric Acid Salt solid forms, competitive slurry experiments at 25±1° C. and 60±1° C. in the solvent of 10% water/acetone were performed with a mixture of eight polymorphs (Form I, and Form III through Form IX) as described in Table 23 and Table 24. [table] [table]

[2] = Solubility measurement in various solvents at 50° C. (Procedure 2)
Protocol: (§1) The solubility of Compound 1 Di-Hydrochloric Acid Salt Form I was measured according to Procedure 1 for solubility in 25° C. (Table 5) and Procedure 2 for 50° C. [table] [table]

[3] = Solubility measurement in various solvents at 25° C. (Procedure 1); conditions: thermodynamic from solid
Protocol: as §1

[4] = 2% water in acetone, organic solvent or mixture
[5] = 2% water in acetonitrile, organic solvent or mixture
[6] = 2-methoxyethanol, organic solvent or mixture
[7] = 5% water in acetone, organic solvent or mixture
[8] = 5% water in acetonitrile, organic solvent or mixture
[9] = 10% water in acetone, organic solvent or mixture
[10] = 10% water in acetonitrile, organic solvent or mixture
[11] = DMF, organic solvent or mixture
[12] = DMSO, organic solvent or mixture
[13] = EtOH, organic solvent or mixture
[14] = IPA, organic solvent or mixture
[15] = MeCN, organic solvent or mixture
[16] = acetone, organic solvent or mixture
[17] = chloroform, organic solvent or mixture

SMILES: Cl.Cl.Cn1c(C(=O)Nc2cccc(-c3cccc(NC(=O)c4nc5c(n4C)CCN(CCC46CCC(C(=O)O)(CC4)C6)C5)c3Cl)c2Cl)nc2c1CCN(CCC13CCC(C(=O)O)(CC1)C3)C2 [Form III, 4,4′-(((((2,2′-dichloro-[1,1′-biphenyl]-3,3′-diyl)bis(azanediyl))bis(carbonyl))bis(1-methyl-1,4,6,7-tetrahydro-5H-imidazo[4,5-c]pyridine-2,5-diyl))bis(ethane-2,1-diyl))bis(bicyclo[2.2.1]heptane-1-carboxylic acid) di-hydrochloric acid salt]
- Polymorph transformation in competitive slurry (XRPD) ([1]; mixture of polymorphs stirred in 10% water/acetone at 25±° C. for 20 hours and at 60±° C. for 2 h): converted to Form I

SMILES: Cl.Cl.Cn1c(C(=O)Nc2cccc(-c3cccc(NC(=O)c4nc5c(n4C)CCN(CCC46CCC(C(=O)O)(CC4)C6)C5)c3Cl)c2Cl)nc2c1CCN(CCC13CCC(C(=O)O)(CC1)C3)C2 [4,4′-(((((2,2′-dichloro-[1,1′-biphenyl]-3,3′-diyl)bis(azanediyl))bis(carbonyl))bis(1-methyl-1,4,6,7-tetrahydro-5H-imidazo[4,5-c]pyridine-2,5-diyl))bis(ethane-2,1-diyl))bis(bicyclo[2.2.1]heptane-1-carboxylic acid) di-hydrochloric acid salt]
- solubility ([2]; 1,4-dioxane, organic solvent or mixture): 10 µg/mL
- solubility ([2]; 1-propanol, organic solvent or mixture): 1120 µg/mL
- solubility [2, 4]: 110 µg/mL
- solubility [2, 5]: 10 µg/mL
- solubility [2, 6]: 28300 µg/mL
- solubility [2, 7]: 560 µg/mL
- solubility [2, 8]: 1210 µg/mL
- solubility [2, 9]: 5710 µg/mL
- solubility [2, 10]: 6610 µg/mL
- solubility [2, 11]: 5480 µg/mL
- solubility [2, 12]: > 50000 µg/mL
- solubility [2, 13]: 1100 µg/mL
- solubility [2, 14]: 980 µg/mL
- solubility ([2]; MEK, organic solvent or mixture): 150 µg/mL
- solubility ([2]; MIBK, organic solvent or mixture): 10 µg/mL
- solubility [2, 15]: 10 µg/mL
- solubility ([2]; THF, organic solvent or mixture, thermodynamic from solid): 40 µg/mL
- solubility [2, 16]: 10 µg/mL
- solubility [2, 17]: > 50000 µg/mL
- solubility ([2]; methanol, organic solvent or mixture, thermodynamic from solid): 22100 µg/mL
- solubility ([2]; organic solvent or mixture, thermodynamic from solid, n-BuOH, solid phase Form IV): 420 µg/mL
- solubility ([2]; thermodynamic from solid, Water, solid phase Form VI): 14800 µg/mL
- Relative stability of polymorphic forms ([1]; 10% water/acetone at 25 and 60° C., competitive slurry): most stable polymorphic form
- solubility [3, 4]: 50 µg/mL
- solubility [3, 5]: 10 µg/mL
- solubility [3, 6]: 16900 µg/mL
- solubility [3, 7]: 320 µg/mL
- solubility [3, 8]: 1040 µg/mL
- solubility [3, 9]: 2300 µg/mL
- solubility [3, 10]: 3640 µg/mL
- solubility [3, 11]: 2980 µg/mL
- solubility [3, 12]: > 50000 µg/mL
- solubility [3, 13]: 390 µg/mL
- solubility [3, 14]: 650 µg/mL
- solubility ([3]; IPAc, organic solvent or mixture): 10 µg/mL
- solubility [3, 15]: 20 µg/mL
- solubility ([3]; THF, organic solvent or mixture): 50 µg/mL
- solubility [3, 16]: 10 µg/mL
- solubility [3, 17]: > 50000 µg/mL
- solubility ([3]; organic solvent or mixture, 1-Propanol, solid phase Form V): 710 µg/mL
- solubility ([3]; organic solvent or mixture, Methanol, solid phase Form III): 18800 µg/mL
- solubility ([3]; organic solvent or mixture, n-BuOH, solid phase Form IV): 460 µg/mL
- solubility ([3]; Water, solid phase Form VI): 12900 µg/mL
